The numbers were not newly measured in US6723530B1, “Polynucleotides encoding proexendin, and methods and uses thereof” (Amylin Pharmaceuticals, Inc., priority 1997, dated 2004), which cites them from elsewhere.

No end group written: not given here.

Series [1] deals with guinea pig acinar cell preparations.
In series [2] the test system is cultured islet cell lines. As to conditions: cultured islet cell lines in vitro.

Take “truncated GLP-1[7-36)-amide: truncated mammalian GLP-1 peptide amide (HAEGTFTSDVSSYLEGQAAKEFIAWLVKGR-NH2)”: the cAMP levels entry in series [1] is recorded as “increased”.

Take exendin 4: the cAMP levels result in series [1] was “increased”. In series [2], the cAMP accumulation entry was “increase”, the glucose-dependent insulin secretion entry is “stimulate” and the insulin gene expression result is “increase”. Moreover, in the series on GLP-1, the “mode of action towards GLP-1 (agonist / antagonist)” value was “strong agonist”.

Turning to “exendin 4(9-39)NH3: truncated exendin 4, competitive antagonist of both exendin 4 and GLP-1”, the “mode of action towards GLP-1 (agonist / antagonist)” value with GLP-1 is listed as “competitive antagonist”.
